± gives the expanded uncertainty stated by the source.
Settings: 298.15 K; 101.33 kPa; Liquid; Vibrating tube method

C[N+](=O)[O-] [nitromethane]
mass density: 1131.1 ± 2.3 kg/m3

CCC(O)CC [3-pentanol]
mass density: 815.8 ± 1.7 kg/m3
